From PubChem BioAssay (NCI)
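Cultured in 96-well plates, cells were exposed to test compound for 48 hours across five concentrations. Abbreviation: GI50, concentration required for 50% inhibition of growth. TGI marks complete inhibition of growth.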

Key:
Assay in all cases: growth of human tumour cells (NCI), 48 h
786-0 renal = system: 786-0 renal
A498 renal = system: A498 renal
A549 NSCLC = system: A549 NSCLC
ACHN renal = system: ACHN renal
BT-549 breast = system: BT-549 breast
CAKI-1 renal = system: CAKI-1 renal
CCRF-CEM leukemia = system: CCRF-CEM leukemia
COLO 205 colon = system: COLO 205 colon
DU-145 prostate = system: DU-145 prostate
EKVX NSCLC = system: EKVX NSCLC
HCC-2998 colon = system: HCC-2998 colon
HCT-116 colon = system: HCT-116 colon
HCT-15 colon = system: HCT-15 colon
HOP-62 NSCLC = system: HOP-62 NSCLC
HOP-92 NSCLC = system: HOP-92 NSCLC
HS 578T breast = system: HS 578T breast
HT29 colon = system: HT29 colon
IGROV1 ovarian = system: IGROV1 ovarian
K-562 leukemia = system: K-562 leukemia
KM12 colon = system: KM12 colon
LOX IMVI melanoma = system: LOX IMVI melanoma
M14 melanoma = system: M14 melanoma
MALME-3M melanoma = system: MALME-3M melanoma
MCF7 breast = system: MCF7 breast
MDA-MB-231 breast = system: MDA-MB-231 breast
MDA-MB-435 = system: MDA-MB-435
MDA-MB-468 breast = system: MDA-MB-468 breast
NCI-H226 lung = system: NCI-H226 lung
NCI-H23 lung = system: NCI-H23 lung
NCI-H460 lung = system: NCI-H460 lung
NCI-H522 lung = system: NCI-H522 lung
OVCAR-3 ovarian = system: OVCAR-3 ovarian
OVCAR-4 ovarian = system: OVCAR-4 ovarian
OVCAR-5 ovarian = system: OVCAR-5 ovarian
OVCAR-8 ovarian = system: OVCAR-8 ovarian
PC-3 prostate = system: PC-3 prostate
RPMI-8226 leukemia = system: RPMI-8226 leukemia
RXF 393 renal = system: RXF 393 renal
SF-268 CNS = system: SF-268 CNS
SF-295 CNS = system: SF-295 CNS
SF-539 CNS = system: SF-539 CNS
SK-MEL-2 melanoma = system: SK-MEL-2 melanoma
SK-MEL-28 melanoma = system: SK-MEL-28 melanoma
SK-MEL-5 melanoma = system: SK-MEL-5 melanoma
SK-OV-3 ovarian = system: SK-OV-3 ovarian
SN12C renal = system: SN12C renal
SNB-19 CNS = system: SNB-19 CNS
SNB-75 CNS = system: SNB-75 CNS
SW-620 colon = system: SW-620 colon
T-47D breast = system: T-47D breast
TK-10 renal = system: TK-10 renal
U251 CNS = system: U251 CNS
UACC-257 melanoma = system: UACC-257 melanoma
UACC-62 melanoma = system: UACC-62 melanoma
UO-31 renal = system: UO-31 renal
HL-60(TB) leukemia = system: HL-60(TB) leukemia
MOLT-4 leukemia = system: MOLT-4 leukemia
SR leukemia = system: SR leukemia

O=C(N/N=C/c1ccc(-c2ccc(O)cc2)s1)c1[nH]c2ccc(Br)cc2c1-c1ccccc1 gave a GI50 (786-0 renal) of 2.16 µM, a TGI (786-0 renal) of 9.19 µM and a GI50 (A498 renal) of 5.57 µM. For the same molecule, the TGI (A498 renal) was 18.9 µM, the GI50 (A549 NSCLC) was 4.28 µM and the TGI (A549 NSCLC) was 17.7 µM. The GI50 (ACHN renal) was 2.92 µM, the TGI (ACHN renal) was 10.9 µM and the GI50 (BT-549 breast) was 2.95 µM. It also gave a TGI (BT-549 breast) of 9.97 µM, a GI50 (CAKI-1 renal) of 3.46 µM and a TGI (CAKI-1 renal) of 13.8 µM. It also gave a GI50 (CCRF-CEM leukemia) of 2.46 µM, a TGI (CCRF-CEM leukemia) greater than 100 µM and a GI50 (COLO 205 colon) of 7.12 µM. The TGI (COLO 205 colon) was 23 µM, the GI50 (DU-145 prostate) was 4.48 µM and the TGI (DU-145 prostate) was 15.7 µM. For the same molecule, the GI50 (EKVX NSCLC) was 4.04 µM, the TGI (EKVX NSCLC) was 14.8 µM and the GI50 (HCC-2998 colon) was 3.16 µM. It also gave a TGI (HCC-2998 colon) of 10.6 µM, a GI50 (HCT-116 colon) of 3.09 µM and a TGI (HCT-116 colon) of 11.7 µM. It also gave a GI50 (HCT-15 colon) of 2.72 µM, a TGI (HCT-15 colon) of 10.6 µM and a GI50 (HOP-62 NSCLC) of 6.32 µM. For the same molecule, the TGI (HOP-62 NSCLC) was 23.6 µM, the GI50 (HOP-92 NSCLC) was 2.98 µM and the TGI (HOP-92 NSCLC) was 9.12 µM. For the same molecule, the GI50 (HS 578T breast) was 3.02 µM, the TGI (HS 578T breast) was 14.1 µM and the GI50 (HT29 colon) was 2.3 µM. It also gave a TGI (HT29 colon) of 5.36 µM, a GI50 (IGROV1 ovarian) of 3.45 µM and a TGI (IGROV1 ovarian) of 12.9 µM. It also gave a GI50 (K-562 leukemia) of 2.95 µM, a TGI (K-562 leukemia) greater than 100 µM and a GI50 (KM12 colon) of 2.77 µM. For the same molecule, the TGI (KM12 colon) was 9.53 µM, the GI50 (LOX IMVI melanoma) was 2 µM and the TGI (LOX IMVI melanoma) was 5.51 µM. It also gave a GI50 (M14 melanoma) of 2.75 µM, a TGI (M14 melanoma) of 10.5 µM and a GI50 (MALME-3M melanoma) of 2.41 µM. The TGI (MALME-3M melanoma) was 9.77 µM, the GI50 (MCF7 breast) was 2.57 µM and the TGI (MCF7 breast) was 10.9 µM. The GI50 (MDA-MB-231 breast) was 3.36 µM, the TGI (MDA-MB-231 breast) was 11.5 µM and the GI50 (MDA-MB-435) was 2.99 µM. It also gave a TGI (MDA-MB-435) of 10.1 µM, a GI50 (MDA-MB-468 breast) of 2.67 µM and a TGI (MDA-MB-468 breast) of 7.57 µM. For the same molecule, the GI50 (NCI-H226 lung) was 5.63 µM, the TGI (NCI-H226 lung) was 20.9 µM and the GI50 (NCI-H23 lung) was 3.25 µM. It also gave a TGI (NCI-H23 lung) of 11.2 µM, a GI50 (NCI-H460 lung) of 2.72 µM and a TGI (NCI-H460 lung) of 7.99 µM. It also gave a GI50 (NCI-H522 lung) of 3.42 µM, a TGI (NCI-H522 lung) of 14.3 µM and a GI50 (OVCAR-3 ovarian) of 3.38 µM. For the same molecule, the TGI (OVCAR-3 ovarian) was 13.6 µM, the GI50 (OVCAR-4 ovarian) was 3.52 µM and the TGI (OVCAR-4 ovarian) was 14.1 µM. For the same molecule, the GI50 (OVCAR-5 ovarian) was 5.15 µM, the TGI (OVCAR-5 ovarian) was 17.2 µM and the GI50 (OVCAR-8 ovarian) was 4.22 µM. For the same molecule, the TGI (OVCAR-8 ovarian) was 17 µM, the GI50 (PC-3 prostate) was 3.17 µM and the TGI (PC-3 prostate) was 13.9 µM. The GI50 (RPMI-8226 leukemia) was 3.14 µM, the TGI (RPMI-8226 leukemia) was greater than 100 µM and the GI50 (RXF 393 renal) was 1.92 µM. For the same molecule, the TGI (RXF 393 renal) was 4.56 µM, the GI50 (SF-268 CNS) was 5.16 µM and the TGI (SF-268 CNS) was 20.3 µM. The GI50 (SF-295 CNS) was 2.2 µM, the TGI (SF-295 CNS) was 5.28 µM and the GI50 (SF-539 CNS) was 2.76 µM. The TGI (SF-539 CNS) was 8.43 µM, the GI50 (SK-MEL-2 melanoma) was 3.45 µM and the TGI (SK-MEL-2 melanoma) was 12.2 µM. For the same molecule, the GI50 (SK-MEL-28 melanoma) was 3.22 µM, the TGI (SK-MEL-28 melanoma) was 11.8 µM and the GI50 (SK-MEL-5 melanoma) was 1.87 µM. It also gave a TGI (SK-MEL-5 melanoma) of 4.16 µM, a GI50 (SK-OV-3 ovarian) of 12.2 µM and a TGI (SK-OV-3 ovarian) of 27.8 µM. For the same molecule, the GI50 (SN12C renal) was 3.48 µM, the TGI (SN12C renal) was 13 µM and the GI50 (SNB-19 CNS) was 4.01 µM. It also gave a TGI (SNB-19 CNS) of 14 µM, a GI50 (SNB-75 CNS) of 3.27 µM and a TGI (SNB-75 CNS) of 12.4 µM. For the same molecule, the GI50 (SW-620 colon) was 4.14 µM, the TGI (SW-620 colon) was 15.2 µM and the GI50 (T-47D breast) was 4.6 µM. The TGI (T-47D breast) was 39.4 µM, the GI50 (TK-10 renal) was 5.05 µM and the TGI (TK-10 renal) was 19.3 µM. For the same molecule, the GI50 (U251 CNS) was 3.63 µM, the TGI (U251 CNS) was 15.5 µM and the GI50 (UACC-257 melanoma) was 10.5 µM. The TGI (UACC-257 melanoma) was 28 µM, the GI50 (UACC-62 melanoma) was 2.65 µM and the TGI (UACC-62 melanoma) was 10 µM. For the same molecule, the GI50 (UO-31 renal) was 2.7 µM and the TGI (UO-31 renal) was 13.5 µM.

With CNCc1cccc2c1OCCCCCC[C@@](C)(O)CC1(CC1)S(=O)(=O)c1ccc(cc1)-c1cnc(N)c(n1)C(=O)N2 the GI50 (786-0 renal) was 0.0536 µM, the TGI (786-0 renal) was 14.2 µM and the GI50 (A498 renal) was 3.93 µM. The TGI (A498 renal) was 25.4 µM, the GI50 (BT-549 breast) was 0.716 µM and the TGI (BT-549 breast) was 14.5 µM. For the same molecule, the GI50 (CAKI-1 renal) was 0.365 µM, the TGI (CAKI-1 renal) was 5.76 µM and the GI50 (CCRF-CEM leukemia) was 0.0102 µM. The TGI (CCRF-CEM leukemia) was 0.634 µM, the GI50 (DU-145 prostate) was 1.03 µM and the TGI (DU-145 prostate) was 2.88 µM. It also gave a GI50 (EKVX NSCLC) of 1.42 µM, a TGI (EKVX NSCLC) of 4.86 µM and a GI50 (HL-60(TB) leukemia) of 0.0197 µM. For the same molecule, the TGI (HL-60(TB) leukemia) was 0.324 µM, the GI50 (HOP-62 NSCLC) was 1.98 µM and the TGI (HOP-62 NSCLC) was 4.65 µM. For the same molecule, the GI50 (HOP-92 NSCLC) was 1.82 µM, the TGI (HOP-92 NSCLC) was 4.55 µM and the GI50 (HS 578T breast) was 0.28 µM. It also gave a TGI (HS 578T breast) of 4.3 µM, a GI50 (MOLT-4 leukemia) of 0.0102 µM and a TGI (MOLT-4 leukemia) of 2.19 µM. It also gave a GI50 (NCI-H226 lung) of 1.53 µM, a TGI (NCI-H226 lung) of 4.18 µM and a GI50 (OVCAR-3 ovarian) of 1.26 µM. The TGI (OVCAR-3 ovarian) was 4.73 µM, the GI50 (OVCAR-4 ovarian) was 2.93 µM and the TGI (OVCAR-4 ovarian) was 26.3 µM. The GI50 (OVCAR-5 ovarian) was 2 µM, the TGI (OVCAR-5 ovarian) was 5.82 µM and the GI50 (PC-3 prostate) was 0.599 µM. It also gave a TGI (PC-3 prostate) of 3.82 µM, a GI50 (SF-268 CNS) of 1.41 µM and a TGI (SF-268 CNS) of 4.18 µM. The GI50 (SK-MEL-28 melanoma) was 1.3 µM, the TGI (SK-MEL-28 melanoma) was 2.65 µM and the GI50 (SK-OV-3 ovarian) was 1.54 µM. For the same molecule, the TGI (SK-OV-3 ovarian) was 19.4 µM, the GI50 (SN12C renal) was 1.26 µM and the TGI (SN12C renal) was 13.9 µM. For the same molecule, the GI50 (SNB-19 CNS) was 1.88 µM, the TGI (SNB-19 CNS) was 4.36 µM and the GI50 (SNB-75 CNS) was 0.213 µM. For the same molecule, the TGI (SNB-75 CNS) was 16.3 µM, the TGI (SR leukemia) was 0.173 µM and the GI50 (T-47D breast) was 3.24 µM. It also gave a TGI (T-47D breast) greater than 88.8 µM, a GI50 (TK-10 renal) of 1.55 µM and a TGI (TK-10 renal) of 18.6 µM. It also gave a GI50 (UACC-62 melanoma) of 1.6 µM, a TGI (UACC-62 melanoma) of 3.06 µM and a GI50 (UO-31 renal) of 0.0741 µM. The TGI (UO-31 renal) was 2.15 µM.
